Reference: PubChem BioAssay (NCI)
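Interpolation was linear, between the two tested concentrations surrounding the appropriate level; five concentrations were tested over 48 hours in 96-well plates. GI50: concentration for 50% inhibition of growth. TGI is the concentration that stops growth completely.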

What was measured:
Test in all cases: NCI tumour cell line growth inhibition, 48 h
[1] = test system: OVCAR-8 ovarian
[2] = test system: UO-31 renal
[3] = test system: TK-10 renal
[4] = test system: OVCAR-3 ovarian
[5] = test system: LOX IMVI melanoma
[6] = test system: SR leukemia
[7] = test system: UACC-62 melanoma
[8] = test system: MALME-3M melanoma
[9] = test system: SNB-75 CNS
[10] = test system: CAKI-1 renal
[11] = test system: NCI-H23 lung
[12] = test system: UACC-257 melanoma
[13] = test system: M14 melanoma
[14] = test system: NCI-H226 lung
[15] = test system: SN12C renal
[16] = test system: NCI/ADR-RES ovarian
[17] = test system: HS 578T breast
[18] = test system: BT-549 breast

SMILES | TGI [1] | TGI [2] | TGI [3] | TGI [4] | TGI [5] | TGI [6] | TGI [7] | TGI [8] | TGI [9] | TGI [10] | TGI [11] | TGI [12] | TGI [13] | TGI [14] | TGI [15] | TGI [16] | TGI [17] | TGI [18] | GI50 [4] | GI50 [15]
COc1cccc2nc3cc(C)c(C)cc3nc12 | > 100 µM | > 100 µM | > 100 µM | > 100 µM | > 100 µM | > 100 µM | > 100 µM | > 100 µM | > 100 µM | > 100 µM | > 100 µM | > 100 µM | > 100 µM | > 100 µM | > 100 µM |  |  |  |  | 
O=C(/C=C/c1ccc(Cl)cc1)c1cccs1 | 56.2 µM | 31.9 µM | 47 µM |  | 24.3 µM | 50.5 µM | 49.2 µM | 36.7 µM | 43.4 µM | 45.2 µM |  | 37.4 µM | 36.3 µM | 44.5 µM | 33.2 µM | 74.4 µM | > 100 µM |  |  | 
COC(=O)C1(Cc2ccc3c(c2)CCC3)Cc2ccc3c(c2C1)CCC3 (stereo not given) | > 100 µM | 74 µM | > 100 µM | 60.1 µM | 32.9 µM |  | > 100 µM | 42 µM | > 100 µM | 79.2 µM | 4.63 µM | 30.3 µM |  | 66 µM | 56.3 µM | 72.8 µM | 45 µM | 56.9 µM |  | 
c1ccc(C2OCCO2)c(OCCOc2cc(OCCOc3ccccc3C3OCCO3)c(OCCOc3ccccc3C3OCCO3)cc2OCCOc2ccccc2C2OCCO2)c1 | > 100 µM | 53.2 µM | 31.4 µM | 46.8 µM | > 100 µM | > 100 µM | 37.6 µM | > 100 µM | 7.06 µM | > 100 µM | 27.3 µM | > 100 µM | > 100 µM | 47.3 µM | > 100 µM |  |  |  |  | 
COc1ccc(-c2cc(=O)c3cc4c(cc3[nH]2)OCO4)cc1 | > 100 µM | > 100 µM | > 100 µM | > 100 µM | > 100 µM | > 100 µM | > 100 µM | > 100 µM | > 100 µM |  | > 100 µM | > 100 µM | > 100 µM | > 100 µM | > 100 µM |  |  |  |  | 
CCN(CC)C(=S)N=Nc1c(O)[nH]c2ccccc12 | 13 µM |  | 5.07 µM | 2.12 µM | 13.4 µM | 4.91 µM | 6.38 µM | 10.4 µM | 11.2 µM | 5.98 µM | 14.6 µM | 12.3 µM | 2.94 µM | 8.2 µM | 14.2 µM | 0.759 µM | 69.5 µM |  |  | 
CC(C)CCc1n[nH]c(=O)n1/N=C\c1ccccc1 | > 100 µM | 86.1 µM | > 100 µM | > 100 µM | > 100 µM |  | > 100 µM | > 100 µM | > 100 µM |  | > 100 µM | > 100 µM | > 100 µM | > 100 µM | > 100 µM | > 100 µM | > 100 µM |  |  | 
COc1ccc(C(=O)N(C(=S)OCCOc2ccccc2)c2ccccc2)cc1 | > 100 µM | 29.9 µM | > 100 µM | > 100 µM | > 100 µM |  | > 100 µM | 88.5 µM | 27.9 µM | > 100 µM | > 100 µM | > 100 µM | > 100 µM |  | > 100 µM | > 100 µM | > 100 µM | > 100 µM |  | 
CC(C)(CO)NC(=O)Nc1c(C(F)(F)F)cc(-c2ccccc2)[nH]c1=O | > 100 µM | > 100 µM | > 100 µM | > 100 µM | > 100 µM |  | > 100 µM | > 100 µM |  | > 100 µM | > 100 µM | > 100 µM | > 100 µM | > 100 µM | > 100 µM | > 100 µM | > 100 µM | > 100 µM |  | 
O=C1CC(C(=O)N2CCCCC2)n2c(=O)n(-c3ccccc3)c(=O)n2C1 (stereo not given) | > 100 µM | > 100 µM | > 100 µM | > 100 µM | > 100 µM |  | > 100 µM | > 100 µM | > 100 µM | > 100 µM | > 100 µM | > 100 µM | > 100 µM | > 100 µM |  | > 100 µM | > 100 µM | > 100 µM |  | 
CC(=O)N1N(c2ccc([N+](=O)[O-])cc2)C(=O)C1(C)C | 59 µM | 32.4 µM | 36.2 µM | 40.5 µM | 26.5 µM |  | 42.3 µM | 56 µM | 37.7 µM |  | 37.8 µM |  | 23.7 µM | 37.6 µM | 32.5 µM | 89.9 µM | > 100 µM | 24.2 µM |  | 
CCOc1cc2c(cc1O)/C(=N/NS(=O)(=O)c1ccc(C)cc1)C[C@@H]1[C@@H]2CC[C@]2(C)[C@@H](O)CC[C@@H]12 | > 100 µM | > 100 µM | > 100 µM | > 100 µM | > 100 µM |  |  | > 100 µM | 67.7 µM | > 100 µM | > 100 µM | > 100 µM | > 100 µM | 68.7 µM | > 100 µM | > 100 µM | > 100 µM | > 100 µM | 3.18 µM | 12.1 µM
CC(C)C1COC(c2cccc(C3=N[C@@H](C(C)C)CO3)n2)=N1 (stereo not given in full) |  | > 100 µM | > 100 µM | > 100 µM | > 100 µM | > 100 µM |  | > 100 µM | > 100 µM | > 100 µM | > 100 µM |  | > 100 µM | > 100 µM | > 100 µM |  |  |  |  | 
Cc1ccc(S(=O)(=O)n2c3c(c4ccccc42)CCN2CCC(Br)C[C@@H]32)cc1 (stereo not given in full) | 25.1 µM | 24.2 µM | 29.4 µM | 23.6 µM | 27.6 µM | 19.2 µM | 25.3 µM | 26.1 µM | 25.4 µM | 28.6 µM | 26.6 µM | 21.1 µM | 25.9 µM | 27.9 µM |  | 32.5 µM | 28.5 µM |  |  | 
Cc1ccc2c(C)c3ccc4ccccc4c3c[n+]2c1 | 36.9 µM | > 100 µM | > 100 µM | 38.1 µM | 99.8 µM | 42.8 µM | 27.4 µM | 9.74 µM | 25.9 µM | > 100 µM | 38.6 µM | 33.7 µM | 33.9 µM | 25.4 µM | 24 µM |  |  |  |  | 
